Assay results as given in patent publication US7763615B2, “Ecteinascidin analogs for use as antitumour agents” (priority 2001, dated 2010).
In brackets after ≈: the same amount, converted by molar mass. Where two headings read alike, the source gives them in different places.

Key:
A498 = assay: cells; assay type: cell-based; conditions: Homo sapiens
Outline: (§1)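 Readout: SRB OD490, triplicate wells. Setup: 5×10^3 cells/well, RPMI 1640 + 10% FBS, 37° C, 5% CO2; 18 h pre-attachment; 48 h sample exposure, 10 to 10^−8 μg/ml. Outputs GI, TGI (cytostatic), LC (cytotoxic).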

A549 = assay: cells; assay type: cell-based; conditions: for GI50: read-out: GI50; for TGI: A549
Outline: as §1

DU145 = assay: cells; assay type: cell-based; conditions: for TGI: DU145
Outline: as §1

HT29 = assay: cells; assay type: cell-based; conditions: for TGI: HT29
Outline: as §1

MB231 = assay: cells; assay type: cell-based; conditions: Homo sapiens
Outline: as §1

MCF = assay: cells; assay type: cell-based; conditions: Homo sapiens
Outline: as §1

MEL-28 = assay: cells; assay type: cell-based; conditions: for TGI: MEL-28
Outline: as §1

SW-620 = assay: cells; assay type: cell-based; conditions: Homo sapiens
Outline: as §1

[1] = system: AML-12, normal mouse liver cells; conditions: 24 h
Method: In order to assess the cytotoxicity of the drugs to normal cells, we used 96 well plates plated at a density of 5000 cells per well (except for the FDC-P1 which were plated at 12,000 cells per well) with normal cell lines (ATCC, Table 1) maintained as per the directions of the ATCC: AML-12, normal mouse liver cells; NRK-52E, normal rat kidney cells; L8, normal rat skeletal muscle cells; FDC-P1, normal mouse myelogeous stem cells; and H9c2 (2-1), normal rat cardiac muscle cells. The cells in each plate were permitted to settle overnight before adding the test drug.
To each well (100 μl medium) 10 μl of drug in media was added at varying concentrations (1×10-10-0.01 mg/ml final concentration) and further incubated overnight at 37° C. with 5% CO2. After 24 h the following assays were performed. All experiments were repeated at least 3 times and were assayed in duplicate.
MTS assay (CellTiter 96 aqueous) was performed according to the manufacturer's (Promega) directions (for all cell types). Cell viability (mitochondrial activity) is determined via enzymatic conversion of the formazan substrate.

[2] = system: NRK-52E, normal rat kidney cells; conditions: 24 h
[3] = system: L8, normal rat skeletal muscle cells; conditions: 24 h
[4] = system: FDC-P1, normal mouse myelogeous stem cells; conditions: 24 h
[5] = system: H9c2 (2-1), normal rat cardiac muscle cells; conditions: 24 h
[6] = s9, 60 min, 1 μM
(HEPG2) = conditions: human, 24 h, 30 μM
Method: The toxic potential of compounds was investigated in vitro using primary human hepatocytes (HEPG2). The compounds were tested at 30 μM in duplicate with a final DMSO concentration of 1%. After incubation during 24 h at 37° C. the cell viability was determined by the conversion of oxided alarmarBlue (resazurin) to reduced alarmarBlue (resorufin). Chlorpromazine was used as reference compound. Results are expressed as a percent of inhibition of control values.

physchem [7] = conditions: pH 7.4, log D n-Octanol-Dulbecco's PBS pH 7.4
Method: The measurement of partition coefficient was evaluated based on a miniaturized shake-flask procedure. Buffer (Dulbecco's PBS, pH 7.40) was used as the aqueous phase. The tested compound was dissolved in DMSO, at the concentration of 100 μM. The final DMSO concentration (1%.) during the octanol-buffer partitioning are very low to avoid bias on the partitioning. The amount of compound in the buffer phase was determined by HPLC with photodiode array detection after an equilibration phase of 60 min. The amount of compound in the octanol phase is calculated by subtraction of the amount of compound in buffer from the total amount of compound, which is determined from a calibration sample.
Log D is calculated as the Log10 of the amount of compound in the octanol phase divided by the amount of compound in the buffer phase. The effective range of the log D microassay is approximately −0.5 to +4.5.

CYP2D6 = CYP2D6 (Homo sapiens, UniProt P10635); assay: in vitro; conditions: CYP2D6 (% inhibition)
CYP2D6, sequence (P10635 whole entry): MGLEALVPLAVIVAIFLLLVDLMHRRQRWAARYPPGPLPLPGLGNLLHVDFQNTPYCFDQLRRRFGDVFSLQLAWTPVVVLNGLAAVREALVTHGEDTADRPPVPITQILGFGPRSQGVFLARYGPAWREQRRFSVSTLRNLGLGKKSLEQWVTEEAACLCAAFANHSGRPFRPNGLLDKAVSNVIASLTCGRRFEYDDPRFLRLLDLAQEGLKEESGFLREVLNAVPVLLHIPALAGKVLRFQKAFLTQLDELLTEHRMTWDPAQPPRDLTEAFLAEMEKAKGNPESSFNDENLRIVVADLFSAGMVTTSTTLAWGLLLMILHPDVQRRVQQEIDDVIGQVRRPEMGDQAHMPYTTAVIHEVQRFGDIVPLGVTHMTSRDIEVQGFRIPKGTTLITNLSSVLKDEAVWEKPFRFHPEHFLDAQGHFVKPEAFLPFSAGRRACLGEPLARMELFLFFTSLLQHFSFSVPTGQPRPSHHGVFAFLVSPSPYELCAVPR
Method: For CYP2D6 inhibition assay, the compound are tested at 10 μM in duplicate with a 0.25% final concentration of both methanol and acetonitrile in presence of the fluorescent substrate AMMC (3-[2-N,N-diethyl-N-methylammonium)ethyl]-7-methoxy-4-methylcoumarin) at the concentration of 1.5 μM). The conversion of the AMMC in AHMC (3-[2-N,N-diethyl-N-methylammonium)ethyl]-7-hydroxy-4-methylcoumarin) is determined spectrofluorimetry after incubation with the enzyme during 450 min at 37° C.
For both assays, the fluorescent intensity measured at t=0 is subtracted from that measured after the appropriate incubation time. The ratio of signal-to-noise is calculated by comparing the fluorescence in incubations containing the test compound to the control samples containing the same solvent vehicle. The percent of control activity is calculated and reported as percent inhibition.

CYP3A4 = CYP3A4 (Homo sapiens, UniProt P08684); assay: in vitro; conditions: CYP3A4 (% inhibition)
CYP3A4, sequence (P08684 whole entry): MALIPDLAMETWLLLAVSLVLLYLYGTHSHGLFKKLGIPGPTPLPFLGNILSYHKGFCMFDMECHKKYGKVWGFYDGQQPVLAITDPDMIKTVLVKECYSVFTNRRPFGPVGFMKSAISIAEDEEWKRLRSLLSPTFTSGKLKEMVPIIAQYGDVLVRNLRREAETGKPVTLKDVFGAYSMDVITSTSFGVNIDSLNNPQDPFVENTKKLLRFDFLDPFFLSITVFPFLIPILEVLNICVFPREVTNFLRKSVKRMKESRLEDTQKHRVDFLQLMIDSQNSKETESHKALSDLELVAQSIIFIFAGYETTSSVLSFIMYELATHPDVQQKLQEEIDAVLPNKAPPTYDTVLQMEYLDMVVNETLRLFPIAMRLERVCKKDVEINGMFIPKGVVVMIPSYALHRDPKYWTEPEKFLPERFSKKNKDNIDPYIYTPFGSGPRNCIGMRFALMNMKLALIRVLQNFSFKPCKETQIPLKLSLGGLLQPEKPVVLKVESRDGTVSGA

physchem [8] = conditions: pH 7.4, aqueous buffer, Solubility Dulbecco's PBS pH 7.4
IGROV-ET = assay: cells; assay type: cell-based; conditions: for GI50 / CC50: Homo sapiens; for GI50 / TGI: IGROV-ET; for CC50: read-out: LC50, IGROV-ET
Outline: as §1

IGROV = assay: cells; assay type: cell-based; conditions: for GI50 / CC50: Homo sapiens; for CC50: read-out: LC50, IGROV
Outline: as §1

K562 = assay: cells; assay type: cell-based; conditions: for GI50 / CC50: Homo sapiens; for GI50: K562, K562; for CC50: K562, read-out: LC50, K562; for TGI: K562
Outline: as §1

LNCAP = assay: cells; assay type: cell-based; conditions: for GI50 / CC50: Homo sapiens, LNCaP; for CC50: read-out: LC50, LNCAP; for TGI: LNCAP
Outline: as §1

LOVO-DOX = assay: cells; assay type: cell-based; conditions: for GI50 / CC50: Homo sapiens; for GI50 / TGI: LOVO-DOX; for CC50: read-out: LC50, LOVO-DOX
Outline: as §1

LOVO = assay: cells; assay type: cell-based; conditions: for GI50 / CC50: Homo sapiens, LoVo; for CC50: read-out: LC50, LOVO; for TGI: LOVO
Outline: as §1

PANC-1 = assay: cells; assay type: cell-based; conditions: for GI50 / CC50: Homo sapiens; for GI50: PANC-1, PANC-1; for CC50: PANC-1, read-out: LC50, PANC-1; for TGI: PANC-1
Outline: as §1

SK-BR3 = assay: cells; assay type: cell-based; conditions: for GI50 / CC50: Homo sapiens; for GI50: SK-BR-3, SK-BR3; for CC50: SK-BR-3, read-out: LC50, SK-BR3; for TGI: SK-BR3
Outline: as §1

H-MEC-1 = assay: Inhibition of cells growth by colorimetric assay (SRB), H-MEC-1; assay type: cell-based; conditions: for TGI: H-MEC-1; for GI50 / CC50: Homo sapiens; for GI50: HMEC-1, H-MEC-1; for CC50: HMEC-1, read-out: LC50, H-MEC-1
Outline: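 For 48 hours, cells seeded at 5×10^3 per well were kept in contact with samples spanning 10 to 10^−8 μg/ml after an 18-hour attachment period. Viable biomass was then estimated colorimetrically with sulphorhodamine B at 490 nm.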

SK-OV3 = assay: Inhibition of cells growth by colorimetric assay (SRB), SK-OV3; assay type: cell-based; conditions: for GI50 / CC50: Homo sapiens; for GI50: SK-OV-3, SK-OV3; for CC50: SK-OV-3, read-out: LC50, SK-OV3; for TGI: SK-OV3
Outline: as §1

[9] = Homo sapiens, DU-145, 48 h, DU145, 48 hours exposure, SRB
[10] = Homo sapiens, HT-29, 48 h, HT29, 48 hours exposure, SRB
[11] = Homo sapiens, SK-MEL-28, 48 h, MEL-28, 48 hours exposure, SRB
[12] = Homo sapiens, A549, read-out: LC50, A549
[13] = Homo sapiens, DU-145, read-out: LC50, DU145
[14] = Homo sapiens, HT-29, read-out: LC50, HT29
[15] = Homo sapiens, SK-MEL-28, MEL-28
[16] = Homo sapiens, SK-MEL-28, read-out: LC50, MEL-28

COc1c(C)cc2c(c1O)[C@@H]1C3[C@@H]4SC[C@]5(NCCc6c5[nH]c5c(OCc7ccccc7)cccc65)C(=O)COC[C@@H](c5c6c(c(C)c(OC(C)=O)c54)OCO6)N3[C@@H](O)[C@H](C2)N1C (stereo partly drawn) [Compound 28]
CC50 (A498; A498, 48 h, read-out: LC50): 58.1 nM
GI50 (A498; A498, 48 hours exposure, SRB): 3.48 nM
IC (TGI) (A498; A498, 48 hours exposure, SRB): 11.6 nM
GI50 (A549; Homo sapiens, A549, 48 h, A549, 48 hours exposure, SRB): 3.48 nM
IC (TGI) (A549; Homo sapiens, A549, 48 h, A549, 48 hours exposure, SRB, read-out: TGI): 46.5 nM
CC50 (A549; Homo sapiens, A549, 48 h, read-out: LC50, A549, 48 hours exposure, SRB): 34.8 nM
GI50 (DU145; [9]): 2.32 nM
IC (TGI) (DU145; [9]): 3.48 nM
CC50 (DU145; Homo sapiens, DU-145, 48 h, read-out: LC50, DU145, 48 hours exposure, SRB): 9.29 nM
GI50 (HT29; [10]): 11.6 nM
IC (TGI) (HT29; [10]): 69.7 nM
CC50 (HT29; Homo sapiens, HT-29, 48 h, read-out: LC50, HT29, 48 hours exposure, SRB): 105 nM
CC50 (MB231; 48 h, read-out: LC50): 116 nM
IC (TGI) (MB231; 48 h, read-out: TGI): 9.29 nM
GI50 (MB231; MB231, 48 hours exposure, SRB): 3.48 nM
CC50 (MCF; 48 h, read-out: LC50): 116 nM
GI50 (MCF; MCF, 48 hours exposure, SRB): 5.81 nM
IC (TGI) (MCF; MCF, 48 hours exposure, SRB, read-out: TGI): 23.2 nM
GI50 (MEL-28; [11]): 23.2 nM
IC (TGI) (MEL-28; [11]): 34.8 nM
CC50 (MEL-28; Homo sapiens, SK-MEL-28, 48 h, read-out: LC50, MEL-28, 48 hours exposure, SRB): 81.3 nM
CC50 (SW-620; SW-620, 48 h, read-out: LC50): 92.9 nM
IC (TGI) (SW-620; SW-620, 48 hours exposure, SRB): 23.2 nM
GI50 (SW-620; SW-620, 48 hours exposure, SRB, read-out: GI50): 6.97 nM
Liver [1]: 1.42E−07
Kidney [2]: 8.37E−08
Skeletal [3]: 1.45E−07
Myelo [4]: 2.00E−07
Heart [5]: 1.84E−07
Human Liver S9 Metabolic Stability (% remaining) [6]: 33 % remaining
Cell Viability (% inhibition) ((HEPG2)): 17 % inhibition
logD at 60 min (physchem [7]): > 4.6
inhibition at 450 min, 10 µM (CYP2D6): 34%
inhibition at 30 min, 10 µM (CYP3A4): 79%
solubility (physchem [8]): < 1 µM

COc1c(C)cc2c(c1OC(=O)OC(C)(C)C)[C@@H]1C3[C@@H]4SC[C@]5(NCCc6c5[nH]c5ccccc65)C(=O)COC[C@@H](c5c6c(c(C)c(OC(C)=O)c54)OCO6)N3[C@@H](O)[C@H](C2)N1C (stereo partly drawn) [Compound 46]
TGI (A549): 6.78E−08
GI50 (A549; Homo sapiens, A549, A549): 33.3 nM
CC50 (A549; [12]): 335 nM
TGI (DU145): 4.61E−08
GI50 (DU145; Homo sapiens, DU-145, DU145): 6.48 nM
CC50 (DU145; [13]): ≥ 11700 nM
TGI (HT29): 1.22E−06
GI50 (HT29; Homo sapiens, HT-29, HT29): 44.4 nM
CC50 (HT29; [14]): ≥ 11700 nM
GI50 (IGROV-ET): 49.5 nM
CC50 (IGROV-ET): 7350 nM
TGI (IGROV-ET): 1.29E−07
TGI (IGROV): 5.40E−08
GI50 (IGROV): 23.2 nM
CC50 (IGROV): 192 nM
GI50 (K562): 1220 nM
CC50 (K562): 3380 nM
TGI (K562): 2.02E−06
GI50 (LNCAP): 0.117 nM
CC50 (LNCAP): 17.5 nM
TGI (LNCAP): 3.25E−09
GI50 (LOVO-DOX): 38.2 nM
CC50 (LOVO-DOX): ≥ 11700 nM
TGI (LOVO-DOX): 2.41E−07
GI50 (LOVO): 15.6 nM
CC50 (LOVO): ≥ 11700 nM
TGI (LOVO): 5.70E−08
GI50 (MEL-28; [15]): 12.4 nM
CC50 (MEL-28; [16]): 153 nM
TGI (MEL-28): 4.07E−08
GI50 (PANC-1): 41.1 nM
CC50 (PANC-1): ≥ 11700 nM
TGI (PANC-1): 2.58E−07
GI50 (SK-BR3): 16.3 nM
CC50 (SK-BR3): 412 nM
TGI (SK-BR3): 5.84E−08
TGI (H-MEC-1): 1.17E−06
GI50 (H-MEC-1): 26 nM
CC50 (H-MEC-1): ≥ 11700 nM
GI50 (SK-OV3): 30.6 nM
CC50 (SK-OV3): ≥ 11700 nM
TGI (SK-OV3): 2.00E−06
Liver [1]: 5.01E−08
Kidney [2]: 4.01E−08
Skeletal [3]: 2.16E−07
Myelo [4]: 1.17E−07
Heart [5]: 3.51E−08
Human Liver S9 Metabolic Stability (% remaining) [6]: 7 % remaining
Cell Viability (% inhibition) ((HEPG2)): 33 % inhibition
logD at 60 min (physchem [7]): > 5
inhibition at 450 min, 10 µM (CYP2D6): 16%
inhibition at 30 min, 10 µM (CYP3A4): 60%
solubility (physchem [8]): 1.37 µM (≈ 1.19 µg/mL)

C=COC(=O)Oc1c(OC)c(C)cc2c1[C@@H]1C3[C@@H]4SC[C@]5(NCCc6c5[nH]c5ccccc65)C(=O)COC[C@@H](c5c6c(c(C)c(OC(C)=O)c54)OCO6)N3[C@@H](O)[C@H](C2)N1C (stereo partly drawn) [Compound 47]
TGI (A549): 7.50E−08
GI50 (A549; Homo sapiens, A549, A549): 33.3 nM
CC50 (A549; [12]): 1330 nM
TGI (DU145): 2.06E−08
GI50 (DU145; Homo sapiens, DU-145, DU145): 5.46 nM
CC50 (DU145; [13]): ≥ 12100 nM
TGI (HT29): 1.21E−05
GI50 (HT29; Homo sapiens, HT-29, HT29): 38.8 nM
CC50 (HT29; [14]): ≥ 12100 nM
GI50 (IGROV-ET): 69.7 nM
CC50 (IGROV-ET): ≥ 12100 nM
TGI (IGROV-ET): 3.61E−06
TGI (IGROV): 4.07E−08
GI50 (IGROV): 10.6 nM
CC50 (IGROV): 909 nM
GI50 (K562): 13.1 nM
CC50 (K562): 6320 nM
TGI (K562): 2.11E−06
GI50 (LNCAP): 2.65 nM
CC50 (LNCAP): 9.76 nM
TGI (LNCAP): 5.08E−09
GI50 (LOVO-DOX): 40.7 nM
CC50 (LOVO-DOX): ≥ 12100 nM
TGI (LOVO-DOX): 1.17E−07
GI50 (LOVO): 6.26 nM
CC50 (LOVO): ≥ 12100 nM
TGI (LOVO): 4.64E−08
GI50 (MEL-28; [15]): 4.26 nM
CC50 (MEL-28; [16]): 207 nM
TGI (MEL-28): 1.00E−08
GI50 (PANC-1): 42.4 nM
CC50 (PANC-1): ≥ 12100 nM
TGI (PANC-1): 1.70E−06
GI50 (SK-BR3): 7.56 nM
CC50 (SK-BR3): 693 nM
TGI (SK-BR3): 3.47E−08
TGI (H-MEC-1): 1.50E−07
GI50 (H-MEC-1): 6.78 nM
CC50 (H-MEC-1): ≥ 12100 nM
GI50 (SK-OV3): 8.98 nM
CC50 (SK-OV3): ≥ 12100 nM
TGI (SK-OV3): 2.88E−07
Liver [1]: 3.04E−08
Kidney [2]: 3.15E−08
Skeletal [3]: 2.57E−08
Myelo [4]: 6.76E−08
Heart [5]: 7.36E−08
Human Liver S9 Metabolic Stability (% remaining) [6]: 5 % remaining
Cell Viability (% inhibition) ((HEPG2)): 18 % inhibition
logD at 60 min (physchem [7]): > 5
inhibition at 450 min, 10 µM (CYP2D6): 10%
inhibition at 30 min, 10 µM (CYP3A4): 38%
solubility (physchem [8]): < 1 µM
